We go through nine molecules from US5231107A, “Derivatives of the oxime of 1,2,5,6-tetrahydropyridine 3-carboxaldehyde, the process for their preparation, their use as medicaments and the compositions containing them” (priority 1987, dated 1993).

A short description of series [1]: Variation of the body temperature (duration of action). In kind it is in vivo, male mice (CD1 Charles Rivers). On the procedure:
(§1) The test is carried out on male mice (CD1 Charles Rivers) weighing 25-30 g, which have fasted for 6 hours.
The temperature of the body is noted by means of a thermocouple inserted about 1.5 cm in the rectum and connected to an electric temperature recorder. […]
The duration of action of the products is determined, using the doses able to reduce the temperature by 1° to 1.5° C.

Series [2] in a line: in vivo. Also on record: species or system male mice (CD1 Charles Rivers). The conditions noted are these: mouse, in vivo; oral route; male CD1 mice; method of Miller and Tainter; read-out: DE50 (dose which causes diarrhoea in 50% of the animals). On the procedure: The test is carried out on male mice (CD1 Charles Rivers) weighing 25 to 30 g, which have fasted for 6 hours. The product dissolved at 5% in methocel is administered by oral route by means of an oesophage probe.
Control animals receive only the excipient.
After treatment, the animals are placed separately in cages of which the base is covered with blotting paper, and they are put under observation for 30, 60, 120 and 180 minutes.
The sheets of absorbent paper are changed after each observation.
The consistency of the feces is evaluated according to the method of Randall and Baruth (Arch. Int. Pharmacodyn. 220, 94, 1976) according to the following scale of values.
1: feces slightly soft, with or without a damp halo,
2: feces slightly soft, with a well-defined circle of humidity,
3: feces soft with a large circle of humidity,
4: feces without consistency with a very large circle of humidity.
For each product, the dose is noted which causes diarrhoea in 50% of the animals according to the method of Miller and Tainter (Proc. Soc. Exp. Biol. Med., 57, 261, 1944).

The nature of series [3]: in vivo. Particulars: mouse, po. On the procedure:
The test was carried out on male mice (CD1 Charles Rivers), of 22 to 24 g, without food for 16 hours. […] The mortality is noted during the 7 days following the treatment.

In series [4] the test system is ileum isolated from guinea-pig. In words: Test of ileum isolated from guinea-pig. The conditions noted are these: Cavia porcellus, agonist activity, Tyrode solution, 37° C., read-out: pD2 (negative logarithm of the dose which produces 50% of the maximum effect) (converted). How it is done: Pieces of ileum are removed from guinea-pigs killed by decapitation. The isolated ileum is placed in 10 cm^3 of Tyrode solution at 37° C. and aerated with a mixture of oxygen (95%) and carbon dioxide gas (5%). The contractions due to the products are registered by means of a detector connected to a polygraph. […].
The possible antagonist activity of the products is tested vis-a-vis acetylcholine.
The agonist activity is expressed in pD2 (negative logarithm of the dose which produces 50% of the maximum effect).
The antagonist activity is expressed in DE50 (dose reducing by 50% the maximum response induced by acetylcholine).

A further series is described as follows: Hypothermic activity. In kind it is in vivo, male mice (CD1 Charles Rivers). The conditions noted are these: Mus musculus, read-out: Effective dose (-1° C.). On the procedure:
as §1
The temperature of the body is noted by means of a thermocouple inserted about 1.5 cm in the rectum and connected to an electric temperature recorder.
The products are administered by oral or sub-cutaneous route and the temperatures are noted at the instant 0 and at 30 minutes, 1 hour, 2 hours and 2-and-a-half hours after treatment.
The degree of hypothermia is evaluated as the difference between the treated animals and the controls, and the dose necessary to reduce the body temperature by 1° C. is noted.

Read-outs that look alike come from different tables or passages of the source. A value given as a limit tells only on which side of the number the result lay.

For the molecule `COC(=O)C1=CCCN(C)C1` [Arecoline HBr, reference compound], the “Variations of the body temperature” value was -0.1 °C in series [1] (3.5 mg/kg sc, 0 min); -1.5 °C in series [1] (3.5 mg/kg sc, 30 min); -0.1 °C in series [1] (3.5 mg/kg sc, 60 min); “+0.2 °C” in series [1] (3.5 mg/kg sc, 120 min); “+0.2 °C” in series [1] (3.5 mg/kg sc, 180 min); “+0.1 °C” in series [1] (200 mg/kg os, 0 min). Also, the “Variations of the body temperature” value in series [1] (200 mg/kg os, 30 min) is -1.1 °C; in series [1] (200 mg/kg os, 60 min) it was -1.0 °C; in series [1] (200 mg/kg os, 120 min), -0.2 °C; in series [1] (200 mg/kg os, 180 min) it was -0.1 °C.

As for `CCOC(=O)N1CCC=C(C=NOC)C1` [Example 2, Methyl ether of 1-ethoxycarbonyl-1,2,5,6-tetrahydropyridin-3-carboxaldehydeoxime], the “Variations of the body temperature” value in series [1] (5. mg/kg os, 0 min) is “+0.2 °C”; in series [1] (5. mg/kg os, 30 min) it was -1.2 °C; in series [1] (5. mg/kg os, 60 min), -1.1 °C; in series [1] (5. mg/kg os, 120 min) it was -0.1 °C; in series [1] (5. mg/kg sc, 0 min), “+0.2 °C”; in series [1] (5. mg/kg sc, 30 min) it was -1.5 °C. For the same molecule, the “Variations of the body temperature” value in series [1] (5. mg/kg sc, 60 min) is -1.4 °C; in series [1] (5. mg/kg sc, 120 min), -0.1 °C. In addition, in “in vivo [2]”, the ED50 was determined as 25 mg/kg. Besides, in the series “in vivo [3]”, the LD50 at 168 h stood at 175 mg/kg. Moreover, the EC50 in series [4] was 33.9 µM. The results for the ED (-1 C) in “Hypothermic activity” (oral route (O.R.)) and in “Hypothermic activity” (sub-cutaneous route (SC.R)) were 3.9 mg/kg and 3.6 mg/kg, respectively.

With `C=CCOC(=O)N1CCC=C(C=NOC)C1` [Example 4, Methyl ether of 1-allyloxycarbonyl-1,2,5,6-tetrahydropyridin-3-carboxaldehyde oxime], the “Variations of the body temperature” value in series [1] (2. mg/kg os, 0 min) is -0.1 °C; in series [1] (2. mg/kg os, 30 min), -1.2 °C; in series [1] (2. mg/kg os, 60 min) it was -1.1 °C; in series [1] (2. mg/kg os, 120 min), -0.1 °C; in series [1] (2. mg/kg os, 180 min), -0.1 °C; in series [1] (2. mg/kg sc, 0 min), -0.1 °C. The “Variations of the body temperature” value is -0.9 °C in series [1] (2. mg/kg sc, 30 min); -1.0 °C in series [1] (2. mg/kg sc, 60 min); -0.2 °C in series [1] (2. mg/kg sc, 120 min); -0.1 °C in series [1] (2. mg/kg sc, 180 min). The ED50 in “in vivo [2]” was determined as 3 mg/kg. The LD50 at 168 h in the series “in vivo [3]” came out at 175 mg/kg. Besides, the EC50 in series [4] was over 100 µM. For the same molecule, the ED (-1 C) in “Hypothermic activity” (oral route (O.R.)) was 1.6 mg/kg; in the series “Hypothermic activity” (sub-cutaneous route (SC.R)), 1.8 mg/kg.

On to `CON=CC1=CCCN(C(=O)Oc2ccccc2)C1` [Example 6, Methyl ether of 1-phenyloxycarbonyl-1,2,5,6-tetrahydropyridin-3-carboxaldehyde oxime], for which the “Variations of the body temperature” value was -0.1 °C in series [1] (3.5 mg/kg sc, 0 min); -0.6 °C in series [1] (3.5 mg/kg sc, 30 min); -1.4 °C in series [1] (3.5 mg/kg sc, 60 min); -0.9 °C in series [1] (3.5 mg/kg sc, 120 min); 0.1 °C in series [1] (3.5 mg/kg sc, 180 min); -0.1 °C in series [1] (7.5 mg/kg os, 0 min). For the same molecule, the “Variations of the body temperature” value in series [1] (7.5 mg/kg os, 30 min) was -1.1 °C; in series [1] (7.5 mg/kg os, 60 min) it was -1.6 °C; in series [1] (7.5 mg/kg os, 120 min), -0.6 °C. Besides, the ED50 in the series “in vivo [2]” turned out to be 100 mg/kg. In the series “in vivo [3]”, this molecule displayed an LD50 at 168 h of 500 mg/kg. Moreover, the EC50 in series [4] was over 100 µM. Further, the ED (-1 C) worked out at 4.6 mg/kg in “Hypothermic activity” (oral route (O.R.)) and 2.3 mg/kg in the series “Hypothermic activity” (sub-cutaneous route (SC.R)).

`CON=CC1=CCCN(C(=O)Oc2ccc(Cl)cc2)C1` [Example 12, Methyl ether of 1-parachlorophenyloxy-carbonyl-1,2,5,6-tetrahydropyridin-3-carboxaldehyde oxime]: the “Variations of the body temperature” value in series [1] (3.12 mg/kg os, 0 min) is “+0.1 °C”; in series [1] (3.12 mg/kg os, 30 min), -0.9 °C; in series [1] (3.12 mg/kg os, 60 min), -1.4 °C; in series [1] (3.12 mg/kg os, 120 min), -0.3 °C; in series [1] (3.12 mg/kg sc, 0 min), -0.1 °C; in series [1] (3.12 mg/kg sc, 30 min), -0.1 °C. The “Variations of the body temperature” value was -1.1 °C in series [1] (3.12 mg/kg sc, 60 min); -1.2 °C in series [1] (3.12 mg/kg sc, 120 min); -0.5 °C in series [1] (3.12 mg/kg sc, 180 min). Further, in the series “in vivo [2]”, the ED50 was over 50 mg/kg. This molecule also came in with an LD50 at 168 h in the series “in vivo [3]” of over 1000 mg/kg. Besides, the EC50 in series [4] was over 100 µM. In addition, the ED (-1 C) was 2.2 mg/kg in “Hypothermic activity” (oral route (O.R.)) and 2.9 mg/kg in “Hypothermic activity” (sub-cutaneous route (SC.R)).

Take `CON=CC1=CCCN(C(=O)Oc2ccc(Br)cc2)C1` [Example 19, 1-(4-bromophenyloxycarbonyl)-1,2,5,6-tetrahydropyridine-3-carboxaldehyde-O-methyloxime]: the ED50 in the series “in vivo [2]” was over 50 mg/kg. Also, the LD50 at 168 h in “in vivo [3]” was over 1000 mg/kg. The EC50 in series [4] is over 100 µM. Also, the figures for the ED (-1 C) in the series “Hypothermic activity” (oral route (O.R.)) and in “Hypothermic activity” (sub-cutaneous route (SC.R)) were 1.7 mg/kg and 1.3 mg/kg, respectively.

For `CON=CC1=CCCN(C(=O)Oc2ccc(F)cc2)C1` [Example 20, 1(4-fluorophenyloxycarbonyl)-1,2,5,6-tetrahydropyridine-3-carboxaldehyde-O-methyloxime], the ED50 in “in vivo [2]” was over 50 mg/kg. The LD50 at 168 h in “in vivo [3]” was determined as 500 mg/kg. Further, the EC50 in series [4] is over 100 µM. Moreover, the ED (-1 C) in “Hypothermic activity” (oral route (O.R.)) stood at 3.2 mg/kg; in “Hypothermic activity” (sub-cutaneous route (SC.R)) it was 1.5 mg/kg.

Take `CON=CC1=CCCN(C(=O)Oc2ccc(C)cc2)C1` [Example 21, 1-(4-methylphenyloxycarbonyl)-1,2,5,6-tetrahydropyridine-3-carboxaldehyde-O-methyloxime]: the ED50 in “in vivo [2]” is over 50 mg/kg. The molecule further came in with an LD50 at 168 h in “in vivo [3]” of 250 mg/kg. For the same molecule, the EC50 in series [4] is over 100 µM. The ED (-1 C) was determined as 1.5 mg/kg in the series “Hypothermic activity” (oral route (O.R.)) and 1.2 mg/kg in the series “Hypothermic activity” (sub-cutaneous route (SC.R)).

As for `CON=CC1=CCCN(C(=O)Oc2ccc(C(C)(C)CC(C)(C)C)cc2)C1` [Example 22, 1-[4-(1,1,3,3-tetramethylbutyl)phenyloxycarbonyl]-1,2,5,6-tetrahydropyridine-3-carboxaldehyde-O-methyloxime], in “in vivo [2]”, the ED50 is over 50 mg/kg. The same molecule had an LD50 at 168 h in the series “in vivo [3]” of 500 mg/kg. In series [4], the EC50 is 100 µM. For the same molecule, the ED (-1 C) was 7 mg/kg in the series “Hypothermic activity” (oral route (O.R.)) and 15 mg/kg in “Hypothermic activity” (sub-cutaneous route (SC.R)).
